Assay results: publication PMC5622171 (Nature Communications, 2017)

Columns and labels:
Assay in all cases: KINOMEscan kinase profiling
Type in all cases: binding
[1] = biological target: T1, ACVR1 (Homo sapiens, UniProt Q04771); conditions: read-out: %Inhibition by 10 μM SPA70
T1 construct: purchased DiscoverX (Ambit Biosciences) KINOMEscan
Outline: (§1)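 KINOMEscan profiling followed a published protocol. Kinases whose inhibition exceeded a set cut-off were then tested in a dilution series beginning at 30 µM.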

[2] = biological target: T2, BMPR1B (Homo sapiens, UniProt O00238); conditions: read-out: %Inhibition by 10 μM SPA70
T2 construct: purchased DiscoverX (Ambit Biosciences) KINOMEscan
Outline: as §1

[3] = biological target: T3, BMPR2 (Homo sapiens, UniProt Q13873)
T3 construct: purchased DiscoverX (Ambit Biosciences) KINOMEscan
Outline: as §1

[4] = biological target: T4, BRSK2 (Homo sapiens, UniProt Q8IWQ3); conditions: read-out: %Inhibition by 10 μM SPA70
T4 construct: purchased DiscoverX (Ambit Biosciences) KINOMEscan
Outline: as §1

[5] = biological target: T5, CAMK4 (Homo sapiens, UniProt Q16566); conditions: read-out: %Inhibition by 10 μM SPA70
T5 construct: purchased DiscoverX (Ambit Biosciences) KINOMEscan
Outline: as §1

[6] = biological target: T6, CHEK1 (Homo sapiens, UniProt O14757)
T6 construct: purchased DiscoverX (Ambit Biosciences) KINOMEscan
Outline: as §1

[7] = biological target: T7, DMPK (Homo sapiens, UniProt Q09013); conditions: read-out: %Inhibition by 10 μM SPA70
T7 construct: purchased DiscoverX (Ambit Biosciences) KINOMEscan
Outline: as §1

[8] = biological target: T8, DMPK2 (Homo sapiens, UniProt Q6DT37); conditions: read-out: %Inhibition by 10 μM SPA70
T8 construct: purchased DiscoverX (Ambit Biosciences) KINOMEscan
Outline: as §1

[9] = biological target: T9, DRAK2 (Homo sapiens, UniProt O94768); conditions: read-out: %Inhibition by 10 μM SPA70
T9 construct: purchased DiscoverX (Ambit Biosciences) KINOMEscan
Outline: as §1

[10] = biological target: T10, DYRK1A (Homo sapiens, UniProt Q13627); conditions: read-out: %Inhibition by 10 μM SPA70
T10 construct: purchased DiscoverX (Ambit Biosciences) KINOMEscan
Outline: as §1

[11] = biological target: T11, EPHB3 (Homo sapiens, UniProt P54753); conditions: read-out: %Inhibition by 10 μM SPA70
T11 construct: purchased DiscoverX (Ambit Biosciences) KINOMEscan
Outline: as §1

[12] = biological target: T12, JNK1 (Homo sapiens, UniProt P45983)
T12 construct: purchased DiscoverX (Ambit Biosciences) KINOMEscan
Outline: as §1

[13] = biological target: T13, MAP4K5 (Homo sapiens, UniProt Q9Y4K4); conditions: read-out: %Inhibition by 10 μM SPA70
T13 construct: purchased DiscoverX (Ambit Biosciences) KINOMEscan
T13 sequence (Q9Y4K4 whole entry): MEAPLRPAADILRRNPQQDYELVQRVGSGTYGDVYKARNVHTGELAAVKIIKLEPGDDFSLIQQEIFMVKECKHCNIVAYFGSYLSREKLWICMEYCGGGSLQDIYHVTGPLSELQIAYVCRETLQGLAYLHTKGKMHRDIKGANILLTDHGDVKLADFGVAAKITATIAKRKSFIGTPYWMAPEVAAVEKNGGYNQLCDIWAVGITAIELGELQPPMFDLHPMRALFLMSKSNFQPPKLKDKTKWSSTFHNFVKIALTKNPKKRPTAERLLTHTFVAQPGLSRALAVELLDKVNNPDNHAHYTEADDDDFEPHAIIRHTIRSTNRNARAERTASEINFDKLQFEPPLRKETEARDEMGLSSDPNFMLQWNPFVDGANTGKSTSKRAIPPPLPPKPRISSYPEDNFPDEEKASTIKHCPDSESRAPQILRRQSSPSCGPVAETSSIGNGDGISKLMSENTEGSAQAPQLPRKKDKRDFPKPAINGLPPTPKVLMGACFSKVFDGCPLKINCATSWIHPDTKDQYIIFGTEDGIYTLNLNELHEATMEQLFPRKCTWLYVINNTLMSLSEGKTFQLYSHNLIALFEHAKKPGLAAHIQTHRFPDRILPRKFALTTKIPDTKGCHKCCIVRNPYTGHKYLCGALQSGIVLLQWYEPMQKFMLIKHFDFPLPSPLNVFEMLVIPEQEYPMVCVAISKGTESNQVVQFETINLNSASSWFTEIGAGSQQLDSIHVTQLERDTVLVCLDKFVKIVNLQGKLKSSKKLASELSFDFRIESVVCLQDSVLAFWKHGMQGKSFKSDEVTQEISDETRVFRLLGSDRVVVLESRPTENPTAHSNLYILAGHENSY
Outline: as §1

[14] = biological target: T14, MAPKAPK2 (Homo sapiens, UniProt P49137); conditions: read-out: %Inhibition by 10 μM SPA70
T14 construct: purchased DiscoverX (Ambit Biosciences) KINOMEscan
Outline: as §1

[15] = biological target: T15, MARK4 (Homo sapiens, UniProt Q96L34)
T15 construct: purchased DiscoverX (Ambit Biosciences) KINOMEscan
T15 sequence (Q96L34 whole entry): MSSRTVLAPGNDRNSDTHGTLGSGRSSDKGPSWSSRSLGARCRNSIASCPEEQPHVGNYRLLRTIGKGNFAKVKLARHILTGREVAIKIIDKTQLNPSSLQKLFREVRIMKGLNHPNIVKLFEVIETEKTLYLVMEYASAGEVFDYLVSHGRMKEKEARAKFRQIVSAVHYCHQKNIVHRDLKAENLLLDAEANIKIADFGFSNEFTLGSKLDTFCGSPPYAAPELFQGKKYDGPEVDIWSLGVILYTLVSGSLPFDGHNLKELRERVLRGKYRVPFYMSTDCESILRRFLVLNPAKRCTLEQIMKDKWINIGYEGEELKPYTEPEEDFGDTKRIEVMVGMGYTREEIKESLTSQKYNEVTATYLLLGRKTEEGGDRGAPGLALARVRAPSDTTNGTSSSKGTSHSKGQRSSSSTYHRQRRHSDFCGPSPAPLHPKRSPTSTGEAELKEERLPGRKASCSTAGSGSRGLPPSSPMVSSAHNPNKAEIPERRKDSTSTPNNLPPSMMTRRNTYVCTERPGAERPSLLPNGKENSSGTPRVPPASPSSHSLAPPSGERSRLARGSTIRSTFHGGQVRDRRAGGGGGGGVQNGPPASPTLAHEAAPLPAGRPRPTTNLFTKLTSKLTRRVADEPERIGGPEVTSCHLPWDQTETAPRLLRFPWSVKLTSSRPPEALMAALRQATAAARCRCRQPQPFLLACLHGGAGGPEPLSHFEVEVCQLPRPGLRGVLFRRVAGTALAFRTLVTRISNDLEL
Outline: as §1

[16] = biological target: T16, MEK1 (Homo sapiens, UniProt Q02750); conditions: read-out: %Inhibition by 10 μM SPA70
T16 construct: purchased DiscoverX (Ambit Biosciences) KINOMEscan
Outline: as §1

[17] = biological target: T17, MKK7 (Homo sapiens, UniProt O14733)
T17 construct: purchased DiscoverX (Ambit Biosciences) KINOMEscan
Outline: as §1

[18] = biological target: T18, MLCK (Homo sapiens, UniProt Q32MK0); conditions: read-out: %Inhibition by 10 μM SPA70
T18 construct: purchased DiscoverX (Ambit Biosciences) KINOMEscan
Outline: as §1

[19] = biological target: T19, MST1 (Homo sapiens, UniProt Q13043)
T19 construct: purchased DiscoverX (Ambit Biosciences) KINOMEscan
Outline: as §1

[20] = biological target: T20, MST2 (Homo sapiens, UniProt Q13188)
T20 construct: purchased Ambit Biosciences, now part of DiscoveryX
T20 sequence (Q13188 whole entry): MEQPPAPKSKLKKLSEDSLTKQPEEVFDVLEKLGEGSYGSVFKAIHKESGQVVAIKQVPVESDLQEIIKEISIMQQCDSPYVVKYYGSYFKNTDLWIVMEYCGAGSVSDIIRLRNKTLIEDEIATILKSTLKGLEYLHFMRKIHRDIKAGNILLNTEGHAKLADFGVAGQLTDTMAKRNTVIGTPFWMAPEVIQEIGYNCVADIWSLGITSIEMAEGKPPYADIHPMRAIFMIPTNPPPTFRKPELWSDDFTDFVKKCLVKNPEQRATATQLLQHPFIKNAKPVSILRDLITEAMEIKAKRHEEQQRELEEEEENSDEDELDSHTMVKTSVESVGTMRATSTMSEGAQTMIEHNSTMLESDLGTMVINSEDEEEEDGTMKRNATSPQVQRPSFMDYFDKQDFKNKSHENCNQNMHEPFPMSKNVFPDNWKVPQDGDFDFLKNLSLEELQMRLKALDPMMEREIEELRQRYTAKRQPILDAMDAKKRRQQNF
Outline: as §1

[21] = biological target: T21, MYLK (Homo sapiens, UniProt Q15746); conditions: read-out: %Inhibition by 10 μM SPA70
T21 construct: purchased DiscoverX (Ambit Biosciences) KINOMEscan
Outline: as §1

[22] = biological target: T22, NEK3 (Homo sapiens, UniProt P51956); conditions: read-out: %Inhibition by 10 μM SPA70
T22 construct: purchased DiscoverX (Ambit Biosciences) KINOMEscan
Outline: as §1

[23] = biological target: T23, NEK5 (Homo sapiens, UniProt Q6P3R8); conditions: read-out: %Inhibition by 10 μM SPA70
T23 construct: purchased DiscoverX (Ambit Biosciences) KINOMEscan
T23 sequence (Q6P3R8 whole entry): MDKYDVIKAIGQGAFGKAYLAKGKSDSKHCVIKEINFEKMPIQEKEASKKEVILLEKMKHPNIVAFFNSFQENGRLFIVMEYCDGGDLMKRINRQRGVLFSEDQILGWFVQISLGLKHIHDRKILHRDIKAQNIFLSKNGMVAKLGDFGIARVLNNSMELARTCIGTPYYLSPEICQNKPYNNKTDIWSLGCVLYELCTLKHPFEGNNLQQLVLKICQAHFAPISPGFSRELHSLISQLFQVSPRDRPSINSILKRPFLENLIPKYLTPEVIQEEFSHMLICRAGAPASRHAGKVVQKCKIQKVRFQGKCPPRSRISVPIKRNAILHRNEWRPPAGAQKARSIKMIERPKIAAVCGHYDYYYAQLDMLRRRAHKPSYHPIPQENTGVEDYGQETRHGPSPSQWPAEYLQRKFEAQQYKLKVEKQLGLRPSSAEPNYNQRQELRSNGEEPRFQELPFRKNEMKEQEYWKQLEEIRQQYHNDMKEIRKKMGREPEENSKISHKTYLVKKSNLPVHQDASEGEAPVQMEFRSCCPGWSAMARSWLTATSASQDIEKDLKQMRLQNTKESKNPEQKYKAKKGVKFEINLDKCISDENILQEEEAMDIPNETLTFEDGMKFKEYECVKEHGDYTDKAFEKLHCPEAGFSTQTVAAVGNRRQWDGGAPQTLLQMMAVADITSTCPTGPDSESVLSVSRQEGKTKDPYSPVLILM
Outline: as §1

[24] = biological target: T24, NIM1 (Homo sapiens, UniProt Q8IY84); conditions: read-out: %Inhibition by 10 μM SPA70
T24 construct: purchased DiscoverX (Ambit Biosciences) KINOMEscan
Outline: as §1

[25] = biological target: T25, PFTAIRE2 (Homo sapiens, UniProt Q96Q40); conditions: read-out: %Inhibition by 10 μM SPA70
T25 construct: purchased DiscoverX (Ambit Biosciences) KINOMEscan
Outline: as §1

[26] = biological target: T26, PIK3C2B (Homo sapiens, UniProt O00750); conditions: read-out: %Inhibition by 10 μM SPA70
T26 construct: purchased DiscoverX (Ambit Biosciences) KINOMEscan
Outline: as §1

[27] = biological target: T27, PIM2 (Homo sapiens, UniProt Q9P1W9); conditions: read-out: %Inhibition by 10 μM SPA70
T27 construct: purchased DiscoverX (Ambit Biosciences) KINOMEscan
Outline: as §1

[28] = biological target: T28, PKN1 (Homo sapiens, UniProt Q16512); conditions: read-out: %Inhibition by 10 μM SPA70
T28 construct: purchased DiscoverX (Ambit Biosciences) KINOMEscan
T28 sequence (Q16512 whole entry): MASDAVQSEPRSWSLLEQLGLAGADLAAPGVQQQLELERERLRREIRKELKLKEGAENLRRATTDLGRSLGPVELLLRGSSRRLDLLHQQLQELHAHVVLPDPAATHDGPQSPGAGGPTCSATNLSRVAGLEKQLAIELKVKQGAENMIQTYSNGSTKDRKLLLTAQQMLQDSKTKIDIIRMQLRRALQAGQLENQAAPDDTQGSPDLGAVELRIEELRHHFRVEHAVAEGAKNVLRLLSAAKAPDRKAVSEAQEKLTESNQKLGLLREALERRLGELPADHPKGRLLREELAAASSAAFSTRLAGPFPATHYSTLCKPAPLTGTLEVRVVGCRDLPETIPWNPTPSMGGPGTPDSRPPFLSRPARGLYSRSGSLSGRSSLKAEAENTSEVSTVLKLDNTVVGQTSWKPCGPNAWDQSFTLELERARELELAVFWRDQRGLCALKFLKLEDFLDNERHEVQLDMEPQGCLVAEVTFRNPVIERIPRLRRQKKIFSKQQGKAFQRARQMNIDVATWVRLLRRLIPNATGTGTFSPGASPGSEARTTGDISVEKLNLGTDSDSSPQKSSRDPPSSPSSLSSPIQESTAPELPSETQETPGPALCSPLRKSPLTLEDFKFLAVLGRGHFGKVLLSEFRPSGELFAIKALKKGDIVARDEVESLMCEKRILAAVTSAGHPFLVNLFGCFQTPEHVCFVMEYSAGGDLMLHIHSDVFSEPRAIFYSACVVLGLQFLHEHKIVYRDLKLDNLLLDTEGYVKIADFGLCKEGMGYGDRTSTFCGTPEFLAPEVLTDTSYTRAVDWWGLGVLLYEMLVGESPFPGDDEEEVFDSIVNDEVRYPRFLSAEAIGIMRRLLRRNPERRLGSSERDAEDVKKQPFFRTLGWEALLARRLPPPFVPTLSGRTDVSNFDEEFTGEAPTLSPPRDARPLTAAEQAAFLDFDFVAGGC
Outline: as §1

[29] = biological target: T29, PRKCQ (Homo sapiens, UniProt Q04759); conditions: read-out: %Inhibition by 10 μM SPA70
T29 construct: purchased DiscoverX (Ambit Biosciences) KINOMEscan
Outline: as §1

[30] = biological target: T30, PRKD1 (Homo sapiens, UniProt Q15139); conditions: read-out: %Inhibition by 10 μM SPA70
T30 construct: purchased DiscoverX (Ambit Biosciences) KINOMEscan
Outline: as §1

[31] = biological target: T31, PRP4 (Homo sapiens, UniProt Q13523); conditions: read-out: %Inhibition by 10 μM SPA70
T31 construct: purchased DiscoverX (Ambit Biosciences) KINOMEscan
Outline: as §1

[32] = biological target: T32, RIOK3 (Homo sapiens, UniProt O14730); conditions: read-out: %Inhibition by 10 μM SPA70
T32 construct: purchased DiscoverX (Ambit Biosciences) KINOMEscan
Outline: as §1

[33] = biological target: T33, RIPK5 (Homo sapiens, UniProt Q6XUX3); conditions: read-out: %Inhibition by 10 μM SPA70
T33 construct: purchased DiscoverX (Ambit Biosciences) KINOMEscan
Outline: as §1

[34] = biological target: T34, ROCK2 (Homo sapiens, UniProt O75116); conditions: read-out: %Inhibition by 10 μM SPA70
T34 construct: purchased DiscoverX (Ambit Biosciences) KINOMEscan
Outline: as §1

[35] = biological target: T35, SgK110 (Homo sapiens, UniProt P0C264); conditions: read-out: %Inhibition by 10 μM SPA70
T35 construct: purchased DiscoverX (Ambit Biosciences) KINOMEscan
T35 sequence (P0C264 whole entry): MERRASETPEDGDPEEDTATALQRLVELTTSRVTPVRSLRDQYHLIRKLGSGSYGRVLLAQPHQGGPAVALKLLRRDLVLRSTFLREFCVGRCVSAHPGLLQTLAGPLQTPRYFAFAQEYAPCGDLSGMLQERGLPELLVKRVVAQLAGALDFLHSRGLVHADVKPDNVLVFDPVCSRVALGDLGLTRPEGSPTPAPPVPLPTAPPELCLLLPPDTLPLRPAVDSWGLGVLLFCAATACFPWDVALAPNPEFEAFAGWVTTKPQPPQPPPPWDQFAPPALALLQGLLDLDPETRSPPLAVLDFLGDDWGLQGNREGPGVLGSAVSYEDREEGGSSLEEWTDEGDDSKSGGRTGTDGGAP
Outline: as §1

[36] = biological target: T36, TRKA (Homo sapiens, UniProt P04629); conditions: read-out: %Inhibition by 10 μM SPA70
T36 construct: purchased DiscoverX (Ambit Biosciences) KINOMEscan
Outline: as §1

[37] = biological target: T37, TYK2(JH1domain-catalytic) (Homo sapiens, UniProt P29597)
T37 construct: TYK2(JH1domain-catalytic); purchased DiscoverX (Ambit Biosciences) KINOMEscan
Outline: as §1

[38] = biological target: T38, TYK2(JH2domain-pseudokinase) (Homo sapiens, UniProt P29597)
T38 construct: TYK2(JH2domain-pseudokinase); purchased DiscoverX (Ambit Biosciences) KINOMEscan
Outline: as §1

[39] = biological target: T39, YSK1 (Homo sapiens, UniProt O00506); conditions: read-out: %Inhibition by 10 μM SPA70
T39 construct: purchased DiscoverX (Ambit Biosciences) KINOMEscan
Outline: as §1

[40] = biological target: T40, p38-alpha (Homo sapiens, UniProt Q16539)
T40 construct: purchased DiscoverX (Ambit Biosciences) KINOMEscan
T40 sequence (Q16539 whole entry): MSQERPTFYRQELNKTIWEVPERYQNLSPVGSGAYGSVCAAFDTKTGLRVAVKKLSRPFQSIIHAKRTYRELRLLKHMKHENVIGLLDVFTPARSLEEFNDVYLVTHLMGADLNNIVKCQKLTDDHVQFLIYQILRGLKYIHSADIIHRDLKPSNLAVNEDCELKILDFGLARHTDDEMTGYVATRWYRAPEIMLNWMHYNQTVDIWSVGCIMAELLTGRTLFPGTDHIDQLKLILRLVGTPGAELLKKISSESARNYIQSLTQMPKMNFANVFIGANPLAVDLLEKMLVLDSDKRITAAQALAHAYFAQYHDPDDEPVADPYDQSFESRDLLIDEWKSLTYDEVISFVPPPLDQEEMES
Outline: as §1

[41] = biological target: T41, p38-beta (Homo sapiens, UniProt Q15759); conditions: read-out: %Inhibition by 10 μM SPA70
T41 construct: purchased DiscoverX (Ambit Biosciences) KINOMEscan
Outline: as §1

T1 sequence (Q04771 21-509): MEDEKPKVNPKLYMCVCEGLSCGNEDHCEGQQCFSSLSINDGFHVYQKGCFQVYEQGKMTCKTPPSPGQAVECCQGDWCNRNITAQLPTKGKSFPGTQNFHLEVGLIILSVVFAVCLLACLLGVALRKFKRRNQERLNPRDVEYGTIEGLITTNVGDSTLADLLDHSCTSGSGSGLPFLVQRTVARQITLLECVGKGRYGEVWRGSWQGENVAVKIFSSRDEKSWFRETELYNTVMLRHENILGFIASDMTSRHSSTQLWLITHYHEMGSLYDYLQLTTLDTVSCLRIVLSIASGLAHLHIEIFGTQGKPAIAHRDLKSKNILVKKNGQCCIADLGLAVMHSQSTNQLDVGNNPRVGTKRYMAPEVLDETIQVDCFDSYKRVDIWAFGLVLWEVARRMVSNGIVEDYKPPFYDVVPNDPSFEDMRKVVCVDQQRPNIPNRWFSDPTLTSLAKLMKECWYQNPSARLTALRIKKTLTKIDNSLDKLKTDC

COc1ccc(OC)c(-n2nnc(S(=O)(=O)c3ccc(C(C)(C)C)cc3)c2C)c1 [SPA70]
inhibition at 10 µM [1]: 0%
inhibition at 10 µM [2]: 0%
%Inhibition by 10 μM SPA70 [3]: 10%
inhibition at 10 µM [4]: 0%
inhibition at 10 µM [5]: 0%
%Inhibition by 10 μM SPA70 [6]: 8%
inhibition at 10 µM [7]: 0%
inhibition at 10 µM [8]: 3%
inhibition at 10 µM [9]: 5%
inhibition at 10 µM [10]: 0%
inhibition at 10 µM [11]: 0%
%Inhibition by 10 μM SPA70 [12]: 9%
inhibition at 10 µM [13]: 0%
inhibition at 10 µM [14]: 20%
%Inhibition by 10 μM SPA70 [15]: 0%
inhibition at 10 µM [16]: 11%
%Inhibition by 10 μM SPA70 [17]: 0%
inhibition at 10 µM [18]: 0%
%Inhibition by 10 μM SPA70 [19]: 0%
Kd ([20]; 11-point 3-fold serial dilutions starting from 30 µM): > 30 µM
inhibition at 10 µM ([20]; read-out: %Inhibition by 10 μM SPA70): 62%
inhibition at 10 µM [21]: 0%
inhibition at 10 µM [22]: 0%
inhibition at 10 µM [23]: 0%
inhibition at 10 µM [24]: 4%
inhibition at 10 µM [25]: 0%
inhibition at 10 µM [26]: 0%
inhibition at 10 µM [27]: 0%
inhibition at 10 µM [28]: 0%
inhibition at 10 µM [29]: 4%
inhibition at 10 µM [30]: 0%
inhibition at 10 µM [31]: 0%
inhibition at 10 µM [32]: 24%
inhibition at 10 µM [33]: 24%
inhibition at 10 µM [34]: 13%
inhibition at 10 µM [35]: 0%
inhibition at 10 µM [36]: 0%
%Inhibition by 10 μM SPA70 [37]: 0%
%Inhibition by 10 μM SPA70 [38]: 0%
inhibition at 10 µM [39]: 2%
%Inhibition by 10 μM SPA70 [40]: 0%
inhibition at 10 µM [41]: 0%
